According to US9346799B2, “Useful combinations of monobactam antibiotics with beta-lactamase inhibitors” (Basilea Pharmaceutica AG, priority 2005, dated 2016):
Each block holds one compound with its values, some of them ahead of it.

Key:
Test in all cases: MIC by broth microdilution (NCCLS M7-A5)
[1] = test system: Stenotrophomonas malthophilia 1AC736; settings: Stenotrophomonas maltophilia 1AC736
[2] = test system: Pseudomonas aeruginosa MK1184
Enterobacter cloacae P99 = test system: Enterobacter cloacae P99
[3] = test system: Klebsiella pneumoniae CF104
Serratia marcescens S6 = test system: Serratia marcescens S6
Acinetobacter sp. J2 = settings: Acinetobacter baumannii J2
[4] = test system: Pseudomonas aeruginosa 1973E
[5] = + 102 + clavulanate, 4 mg/L each
[6] = + 206 + clavulanate, 4 mg/L each
[7] = + 324 + clavulanate, 4 mg/L each

SMILES: CC1C(NC(=O)C(=NOCc2cc(=O)c(O)cn2O)c2cccc(N)n2)C(=O)N1S(=O)(=O)O (centres unmarked) [Compound 20]
- MIC of antibiotic [1, 5]: 0.25 µg/mL
- MIC of antibiotic [1, 6]: 0.5 µg/mL
- MIC of antibiotic ([1]; + 501 4 mg/L): 0.25 µg/mL
- MIC of antibiotic ([1]; + clavulanate 4 mg/L): 0.25 µg/mL
- MIC of antibiotic ([1]; antibiotic alone): 4 µg/mL
- MIC of antibiotic [2, 5]: 8 µg/mL
- MIC of antibiotic [2, 6]: >32 µg/mL
- MIC of antibiotic ([2]; + 501 4 mg/L): >32 µg/mL
- MIC of antibiotic ([2]; + clavulanate 4 mg/L): >32 µg/mL
- MIC of antibiotic ([2]; antibiotic alone): >32 µg/mL
- MIC of antibiotic (Enterobacter cloacae P99; [5]): 16 µg/mL
- MIC of antibiotic (Enterobacter cloacae P99; [6]): 16 µg/mL
- MIC of antibiotic (Enterobacter cloacae P99; + 501 4 mg/L): >32 µg/mL
- MIC of antibiotic (Enterobacter cloacae P99; + clavulanate 4 mg/L): >32 µg/mL
- MIC of antibiotic (Enterobacter cloacae P99; antibiotic alone): >32 µg/mL
- MIC of antibiotic [3, 5]: 2 µg/mL
- MIC of antibiotic [3, 6]: 4 µg/mL
- MIC of antibiotic ([3]; + 501 4 mg/L): 16 µg/mL
- MIC of antibiotic ([3]; + clavulanate 4 mg/L): 32 µg/mL
- MIC of antibiotic ([3]; antibiotic alone): >32 µg/mL
- MIC of antibiotic (Serratia marcescens S6; [5]): 0.5 µg/mL
- MIC of antibiotic (Serratia marcescens S6; [6]): 0.5 µg/mL
- MIC of antibiotic (Serratia marcescens S6; + 501 4 mg/L): 2 µg/mL
- MIC of antibiotic (Serratia marcescens S6; + clavulanate 4 mg/L): 2 µg/mL
- MIC of antibiotic (Serratia marcescens S6; antibiotic alone): 4 µg/mL
- MIC of antibiotic (Acinetobacter sp. J2; [5]): >32 µg/mL
- MIC of antibiotic (Acinetobacter sp. J2; [6]): >32 µg/mL
- MIC of antibiotic (Acinetobacter sp. J2; + 501 4 mg/L): <0.06 µg/mL
- MIC of antibiotic (Acinetobacter sp. J2; + clavulanate 4 mg/L): >32 µg/mL
- MIC of antibiotic (Acinetobacter sp. J2; antibiotic alone): >32 µg/mL
- MIC of antibiotic [4, 5]: 32 µg/mL
- MIC of antibiotic [4, 6]: 16 µg/mL
- MIC of antibiotic ([4]; + 501 4 mg/L): 16 µg/mL
- MIC of antibiotic ([4]; + clavulanate 4 mg/L): 16 µg/mL
- MIC of antibiotic ([4]; antibiotic alone): 16 µg/mL

- MIC of antibiotic ([1]; + 102 + sulbactam, 4 mg/L each): 8 µg/mL
- MIC of antibiotic ([1]; + 324 + sulbactam, 4 mg/L each): 4 µg/mL
- MIC of antibiotic ([1]; antibiotic alone): 8 µg/mL
- MIC of antibiotic ([2]; + 102 + sulbactam, 4 mg/L each): 32 µg/mL
- MIC of antibiotic ([2]; + 324 + sulbactam, 4 mg/L each): 32 µg/mL
- MIC of antibiotic ([2]; antibiotic alone): >32 µg/mL
- MIC of antibiotic (Enterobacter cloacae P99; + 102 + sulbactam, 4 mg/L each): 32 µg/mL
- MIC of antibiotic (Enterobacter cloacae P99; + 324 + sulbactam, 4 mg/L each): 8 µg/mL
- MIC of antibiotic (Enterobacter cloacae P99; antibiotic alone): >32 µg/mL
- MIC of antibiotic ([3]; + 102 + sulbactam, 4 mg/L each): 2 µg/mL
- MIC of antibiotic ([3]; + 324 + sulbactam, 4 mg/L each): 4 µg/mL
- MIC of antibiotic ([3]; antibiotic alone): >32 µg/mL
- MIC of antibiotic (Serratia marcescens S6; + 102 + sulbactam, 4 mg/L each): 16 µg/mL
- MIC of antibiotic (Serratia marcescens S6; + 324 + sulbactam, 4 mg/L each): 4 µg/mL
- MIC of antibiotic (Serratia marcescens S6; antibiotic alone): 8 µg/mL
- MIC of antibiotic (Acinetobacter sp. J2; + 102 + sulbactam, 4 mg/L each): 2 µg/mL
- MIC of antibiotic (Acinetobacter sp. J2; + 324 + sulbactam, 4 mg/L each): 2 µg/mL
- MIC of antibiotic (Acinetobacter sp. J2; antibiotic alone): >32 µg/mL
- MIC of antibiotic ([4]; + 102 + sulbactam, 4 mg/L each): 16 µg/mL
- MIC of antibiotic ([4]; + 324 + sulbactam, 4 mg/L each): 16 µg/mL
- MIC of antibiotic ([4]; antibiotic alone): 8 µg/mL
SMILES: C[C@H]1[C@H](NC(=O)/C(=N\OCc2cc(=O)c(O)cn2O)c2nccc(N)n2)C(=O)N1S(=O)(=O)O [Compound 21, (3S,4S)-3-{(2Z)-2-(4-aminopyrimidin-2-yl)-3-[(1,5-dihydroxy-4-oxo(2-hydropyridyl))methoxy]-3-azaprop-2-enoylamino}-4-methyl-2-oxoazetidinesulfonic acid]

- MIC of antibiotic [1, 5]: 1 µg/mL
- MIC of antibiotic ([1]; antibiotic alone): 0.5 µg/mL
- MIC of antibiotic [2, 5]: 4 µg/mL
- MIC of antibiotic ([2]; antibiotic alone): 8 µg/mL
- MIC of antibiotic (Enterobacter cloacae P99; [5]): 8 µg/mL
- MIC of antibiotic (Enterobacter cloacae P99; antibiotic alone): >32 µg/mL
- MIC of antibiotic [3, 5]: 0.25 µg/mL
- MIC of antibiotic ([3]; antibiotic alone): >32 µg/mL
- MIC of antibiotic (Serratia marcescens S6; [5]): 0.25 µg/mL
- MIC of antibiotic (Serratia marcescens S6; antibiotic alone): 0.13 µg/mL
- MIC of antibiotic (Acinetobacter sp. J2; [5]): 4 µg/mL
- MIC of antibiotic (Acinetobacter sp. J2; antibiotic alone): >32 µg/mL
- MIC of antibiotic [4, 5]: 4 µg/mL
- MIC of antibiotic ([4]; antibiotic alone): 4 µg/mL
SMILES: C[C@H]1[C@H](NC(=O)/C(=N\OCc2cc(=O)c(O)cn2O)c2csc(N)n2)C(=O)N1OCC(=O)O [Compound 22, 2-((3S,4S)-3-{(2Z)-2-(2-amino(1,3-thiazol-4-yl))-3-[(1,5-dihydroxy-4-oxo(2-hydropyridyl))methoxy]-3-azaprop-2-enoylamino}-4-methyl-2-oxoazetidinyloxy)acetic acid]

- MIC of antibiotic ([1]; antibiotic alone): 1 µg/mL
- MIC of antibiotic [2, 5]: 8 µg/mL
- MIC of antibiotic [2, 7]: 8 µg/mL
- MIC of antibiotic ([2]; + 324 + sulbactam, 4 mg/L each): 8 µg/mL
- MIC of antibiotic ([2]; antibiotic alone): 8 µg/mL
- MIC of antibiotic (Enterobacter cloacae P99; [5]): 8 µg/mL
- MIC of antibiotic (Enterobacter cloacae P99; [7]): 4 µg/mL
- MIC of antibiotic (Enterobacter cloacae P99; + 324 + sulbactam, 4 mg/L each): 8 µg/mL
- MIC of antibiotic (Enterobacter cloacae P99; antibiotic alone): >32 µg/mL
- MIC of antibiotic [3, 5]: 1 µg/mL
- MIC of antibiotic [3, 7]: 1 µg/mL
- MIC of antibiotic ([3]; + 324 + sulbactam, 4 mg/L each): 2 µg/mL
- MIC of antibiotic ([3]; antibiotic alone): >32 µg/mL
- MIC of antibiotic (Serratia marcescens S6; [5]): 0.25 µg/mL
- MIC of antibiotic (Serratia marcescens S6; [7]): 0.25 µg/mL
- MIC of antibiotic (Serratia marcescens S6; + 324 + sulbactam, 4 mg/L each): 0.5 µg/mL
- MIC of antibiotic (Serratia marcescens S6; antibiotic alone): 0.25 µg/mL
- MIC of antibiotic (Acinetobacter sp. J2; [5]): 8 µg/mL
- MIC of antibiotic (Acinetobacter sp. J2; [7]): 8 µg/mL
- MIC of antibiotic (Acinetobacter sp. J2; + 324 + sulbactam, 4 mg/L each): 2 µg/mL
- MIC of antibiotic (Acinetobacter sp. J2; antibiotic alone): 16 µg/mL
- MIC of antibiotic [4, 5]: 8 µg/mL
- MIC of antibiotic [4, 7]: 16 µg/mL
- MIC of antibiotic ([4]; + 324 + sulbactam, 4 mg/L each): 16 µg/mL
- MIC of antibiotic ([4]; antibiotic alone): 8 µg/mL
SMILES: C[C@H](ON1C(=O)[C@@H](NC(=O)/C(=N\OCc2cc(=O)c(O)cn2O)c2csc(N)n2)[C@@H]1C)C(=O)O [Compound 23, (2S)-2-((3S,4S)-3-{(2Z)-2-(2-amino(1,3-thiazol-4-yl))-3-[(1,5-dihydroxy-4-oxo(2-hydropyridyl))methoxy]-3-azaprop-2-enoylamino}-4-methyl-2-oxoazetidinyloxy)propanoic acid]
